This note sets out measurements from ChEMBL document CHEMBL1201862, “PubChem BioAssay data set” (2004).

Data set [1] has as its target Cytochrome P450 2C19 (Homo sapiens, UniProt P33261). Put plainly: Cytochrome panel assay with activity outcomes. Panel member name: p450-cyp2c19 Compounds with AC50 equal or less than 10 uM are considered active. It counts as functional. Particulars: read-out: AC50.
Data set [2] in a line: Vero cell cytotoxicity, dose response, cytotoxicity control for Vif-APOBEC3G degradation inhibitor project, Vero cells (AID 1117358). Particulars: Human immunodeficiency virus 1, Vero. The format is functional.
Data set [3] addresses T1, Cytochrome P450 1A2 (Homo sapiens, UniProt P05177).
T1 sequence (P05177 whole entry): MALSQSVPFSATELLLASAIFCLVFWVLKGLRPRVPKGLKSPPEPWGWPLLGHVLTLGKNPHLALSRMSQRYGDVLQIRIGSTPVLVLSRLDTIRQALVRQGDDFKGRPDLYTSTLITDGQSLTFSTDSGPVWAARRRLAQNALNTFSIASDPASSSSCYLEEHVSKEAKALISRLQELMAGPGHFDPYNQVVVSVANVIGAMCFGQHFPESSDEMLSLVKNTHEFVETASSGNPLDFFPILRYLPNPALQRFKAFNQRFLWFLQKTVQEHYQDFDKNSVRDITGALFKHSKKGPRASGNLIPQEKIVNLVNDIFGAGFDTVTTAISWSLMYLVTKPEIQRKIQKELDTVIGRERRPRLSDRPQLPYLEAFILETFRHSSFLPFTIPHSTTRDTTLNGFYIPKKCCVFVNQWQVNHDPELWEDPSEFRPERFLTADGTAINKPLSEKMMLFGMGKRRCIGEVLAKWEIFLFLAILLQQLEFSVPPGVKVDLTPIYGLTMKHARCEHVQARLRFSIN

Data set [4] has as its target Cytochrome P450 2C9 (Homo sapiens, UniProt P11712).
The nature of data set [5]: inhibitors of firefly luciferase expression or activity, dose response, H4 neuroglioma cells, luminescence (AID 1990). The format is functional, cell-based.
Data set [6] has as its system BJ. Put plainly: cytotoxicity toward BJ-TERT fibroblasts, dose response, cell-based, RAS-independent, luminescence (AID 1933). It counts as functional. Particulars: Homo sapiens.
Data set [7] in a line: Luminescence Cell-Based Dose Response HTS to Identify Inhibitors of 5'UTR Stem-Loop Driven Prion Protein mRNA Translation in H4 Neuroglioblastoma Cells. [Related pubchem assays: 1827 (Project Summary), 1813 (Primary HTS)]. It counts as functional.
Data set [8] in a line: inhibitors of SNCA 5'UTR-driven reporter translation, confirmation, H4 neuroglioma cells, luminescence (AID 1988). It counts as functional, cell-based.
The subject of data set [9] is BJ. Kind of data set: cells. It counts as functional, cell-based. As to conditions: Homo sapiens.
Data set [10] deals with BJ. Put plainly: cytotoxicity toward BJ-TERT-LT-ST fibroblasts, dose response, cell-based, RAS-independent, luminescence (AID 1935).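 Further: BJ fibroblasts immortalized with TERT plus LT and ST oncogenes.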 The format is functional. As to conditions: Homo sapiens.
Data set [11] can be described thus: cytotoxicity toward DRD oncogenic fibroblasts, dose response, cell-based, non-viral oncogenic, luminescence (AID 1934). The format is functional. As to conditions: Homo sapiens.
Data set [12] addresses T2, Replicative DNA helicase DnaB (Mycobacterium tuberculosis, UniProt P9WMR3).
T2 sequence (P9WMR3 whole entry): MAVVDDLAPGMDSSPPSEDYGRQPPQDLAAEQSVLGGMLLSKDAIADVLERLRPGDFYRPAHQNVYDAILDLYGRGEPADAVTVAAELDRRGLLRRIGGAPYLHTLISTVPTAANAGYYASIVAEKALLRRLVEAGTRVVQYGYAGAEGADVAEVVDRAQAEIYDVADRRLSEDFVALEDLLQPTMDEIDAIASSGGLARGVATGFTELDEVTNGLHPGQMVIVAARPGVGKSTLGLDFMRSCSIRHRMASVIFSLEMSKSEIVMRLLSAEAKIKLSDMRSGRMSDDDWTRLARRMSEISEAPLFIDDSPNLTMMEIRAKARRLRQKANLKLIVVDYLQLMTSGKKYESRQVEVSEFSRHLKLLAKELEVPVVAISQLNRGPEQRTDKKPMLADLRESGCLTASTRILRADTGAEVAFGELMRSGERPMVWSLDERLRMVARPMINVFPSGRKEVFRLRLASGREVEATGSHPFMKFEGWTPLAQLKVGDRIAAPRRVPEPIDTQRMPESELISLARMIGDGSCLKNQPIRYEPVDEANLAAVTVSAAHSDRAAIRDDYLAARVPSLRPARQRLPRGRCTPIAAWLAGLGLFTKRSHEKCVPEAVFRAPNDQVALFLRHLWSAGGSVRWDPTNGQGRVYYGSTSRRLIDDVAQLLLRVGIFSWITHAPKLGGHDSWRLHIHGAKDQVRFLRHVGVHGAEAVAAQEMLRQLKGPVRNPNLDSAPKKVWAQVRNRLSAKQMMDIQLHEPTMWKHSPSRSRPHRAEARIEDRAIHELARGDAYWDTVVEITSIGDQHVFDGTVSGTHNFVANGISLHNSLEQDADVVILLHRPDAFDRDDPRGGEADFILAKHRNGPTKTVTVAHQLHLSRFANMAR
Kind of data set: DnaB intein splicing inhibitors, dose response, biochemical, cell-free fluorescence (AID 449749). It counts as functional.

The test system of data set [13] is BJ. Put plainly: cytotoxicity toward Ras-transformed BJeLR fibroblasts, dose response, cell-based, alamar blue fluorescence, cherrypicked samples (AID 2631).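 Further: confirmatory dose-response assay in RAS-dependent BJ fibroblasts engineered with TERT, LT and ST, with cytotoxicity read by fluorescence.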 It counts as functional. Particulars: Homo sapiens. (In general: Alamar Blue is a resazurin reagent that responds to reducing activity.)
For data set [14], the target named is T3, Protein RecA (Mycobacterium tuberculosis, UniProt P9WHJ3).
T3 sequence (P9WHJ3 whole entry): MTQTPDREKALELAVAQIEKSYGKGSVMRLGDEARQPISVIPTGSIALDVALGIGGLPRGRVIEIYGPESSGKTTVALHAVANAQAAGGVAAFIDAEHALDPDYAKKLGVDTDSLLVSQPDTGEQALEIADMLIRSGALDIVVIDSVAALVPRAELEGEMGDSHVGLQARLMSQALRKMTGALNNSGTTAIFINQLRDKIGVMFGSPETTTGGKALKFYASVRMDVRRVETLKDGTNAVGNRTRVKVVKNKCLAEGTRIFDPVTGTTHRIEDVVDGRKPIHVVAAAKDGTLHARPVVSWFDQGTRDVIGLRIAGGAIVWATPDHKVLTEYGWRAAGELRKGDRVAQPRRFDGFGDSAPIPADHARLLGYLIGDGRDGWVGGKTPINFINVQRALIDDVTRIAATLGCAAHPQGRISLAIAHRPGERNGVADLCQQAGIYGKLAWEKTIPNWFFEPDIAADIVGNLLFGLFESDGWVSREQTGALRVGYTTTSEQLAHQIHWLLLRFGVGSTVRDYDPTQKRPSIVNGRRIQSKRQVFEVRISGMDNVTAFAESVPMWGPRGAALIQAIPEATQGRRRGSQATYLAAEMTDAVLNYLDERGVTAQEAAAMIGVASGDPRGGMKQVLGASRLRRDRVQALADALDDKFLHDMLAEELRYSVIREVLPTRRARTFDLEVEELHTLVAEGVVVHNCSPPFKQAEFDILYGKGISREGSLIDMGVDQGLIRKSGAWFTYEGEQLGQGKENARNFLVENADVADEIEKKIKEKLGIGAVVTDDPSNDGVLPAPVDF
Kind of data set: Fluorescence Cell-Free Homogeneous Dose Retest to Identify Inhibitors of RecA-Intein Splicing Activity. [Related pubchem assays (depositor defined):AID2097, AID2223, AID489010, AID492950]. It counts as functional.

The test system of data set [15] is INS1. Kind of data set: beta cell apoptosis inhibitors, cytokine rescue, dose response, luminescence, retest (AID 449756).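 Further: cell death triggered by IL-1 beta plus TNF-alpha plus IFN-gamma mixture; protective hits raise ATP signal compared with cytokine alone wells.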 The format is functional, cell-based. As to conditions: Rattus norvegicus.
Data set [16] is described as follows: Shn3 3'UTR reporter inhibitors, dose response, cell-based, Clone20 osteoblasts, firefly luciferase, cherry-picked (AID 624132).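 Further: firefly luciferase luminescence from reporter carrying the Shn3 3'UTR in osteoblasts.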 It counts as functional.
Data set [17] can be described thus: HepG2 cell cytotoxicity, dose response, cytotoxicity control for Shn3 inhibitor project, CellTiter-Glo, cherry-picked (AID 624134). The format is functional, cell-based. (Cellular ATP, detected with luciferase, serves as a proxy for viable cell number.)
Data set [18] in a line: control 3'UTR Renilla luciferase suppression, dose response, counter-screen for Shn3 inhibitor project, cell-based, Clone20-Shn3RL, cherry-picked (AID 624133). It counts as functional.
Data set [19] can be described thus: Fluorescence-based cell-based high throughput dose response assay for inhibitors of the interaction of nucleotide-binding oligomerization domain containing 2 (NOD2) and the receptor-interacting serine-threonine kinase 2 (RIPK2). The format is functional. As to conditions: Homo sapiens.
Data set [20] deals with T4, Caspase-6 (Homo sapiens, UniProt P55212).
T4 sequence (P55212 whole entry): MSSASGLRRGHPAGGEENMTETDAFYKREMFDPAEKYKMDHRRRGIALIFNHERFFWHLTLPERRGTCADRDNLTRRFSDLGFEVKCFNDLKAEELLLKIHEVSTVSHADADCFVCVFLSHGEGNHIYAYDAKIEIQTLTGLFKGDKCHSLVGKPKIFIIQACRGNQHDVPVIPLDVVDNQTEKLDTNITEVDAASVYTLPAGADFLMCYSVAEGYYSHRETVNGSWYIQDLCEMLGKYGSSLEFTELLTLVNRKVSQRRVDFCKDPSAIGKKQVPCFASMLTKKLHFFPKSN
Kind of data set: human caspase-6 inhibitors, dose response, biochemical, VEID-R110 fluorescence, cherry-pick (AID 720632).

Data set [21] has as its system Streptococcus sp. 'group A'. Kind of data set: growth inhibition of control SK(-) GAS strain, dose response, counter-screen for streptokinase expression inhibitor project, luminescence, kanamycin, BacTiterGlo, confirmation (AID 1900). The format is functional, organism-based. In general terms: The purpose of a counterscreen is to sort out artefacts and off-target activity.

Data set [22] addresses T5, Streptokinase A (Streptococcus pyogenes serotype M1, UniProt P10520).
T5 sequence (P10520 whole entry): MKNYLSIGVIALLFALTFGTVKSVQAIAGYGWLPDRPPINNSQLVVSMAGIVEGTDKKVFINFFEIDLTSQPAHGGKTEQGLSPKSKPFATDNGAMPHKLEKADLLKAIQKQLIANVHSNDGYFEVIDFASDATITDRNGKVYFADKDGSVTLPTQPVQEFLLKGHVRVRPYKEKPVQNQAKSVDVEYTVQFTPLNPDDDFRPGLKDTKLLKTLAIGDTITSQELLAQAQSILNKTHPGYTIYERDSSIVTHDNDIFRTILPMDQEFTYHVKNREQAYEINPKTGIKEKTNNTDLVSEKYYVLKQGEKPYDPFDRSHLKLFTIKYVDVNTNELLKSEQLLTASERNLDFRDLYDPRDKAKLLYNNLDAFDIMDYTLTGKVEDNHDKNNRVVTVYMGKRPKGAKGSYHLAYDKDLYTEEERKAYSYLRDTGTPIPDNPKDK
Put plainly: S. pyogenes streptokinase expression inhibitors, potency, dose response, plasminogen activation absorbance, OD405 (AID 1914).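 Further: secreted streptokinase activity via plasminogen activation per viability signal from cell pellet.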 The format is functional, Streptococcus pyogenes M1 GAS.

Data set [23] in a line: inhibitors of intracellular T. cruzi replication, confirmation, NIH3T3 host cells, beta-gal luminescence (AID 2044).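 Further: intracellular parasites grown in NIH/3T3 mouse fibroblasts as host cells; luminescent beta-galactosidase reporter signal from transgenic T. cruzi replicating inside host cells; inhibitors lower the luminescence signal.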 It counts as functional, cell-based.
Data set [24] is described as follows: growth suppression of PTEN-null colon cells, dose response, cell-based, HCT116 PTEN knockout (AID 1047).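 Further: HCT116 colon tumor cells with PTEN knocked out; cells exposed to compound for 60 hours before readout; potency for loss of cell viability measured by luminescence.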 The format is functional.
The nature of data set [25]: cytotoxicity toward NIH3T3 fibroblasts, dose response, counter-screen, cell-based, ATP luminescence, mouse fibroblasts (AID 2010).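 Further: cells exposed to compound for about 90 hours before reading.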 It counts as functional.
The nature of data set [26]: growth suppression of beta-catenin-knockout colon cells, dose response, cell-based, HCT116, human colon tumor (AID 1045).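 Further: HCT116 colon tumor cells with beta catenin knocked out; cells exposed to compound for 60 hours.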 It counts as functional.
Data set [27] relates to Streptococcus. Put plainly: Group A Streptococcus viability loss, dose response, counter-screen for streptokinase expression inhibitor project, luminescence, BacTiterGlo (AID 1915).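 Further: potency for reduction of bacterial viability or growth.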 It counts as functional, organism-based.
Data set [28] in a line: Luminescence Cell-Based Dose Retest to Confirm Inhibitors of Cancer Stem Cells. [Related pubchem assays (depositor defined):AID2717, AID2721]. The format is functional. Particulars: Homo sapiens.

The source made the active and inactive calls.

Cytochrome P450 2C19, sequence (P33261 whole entry): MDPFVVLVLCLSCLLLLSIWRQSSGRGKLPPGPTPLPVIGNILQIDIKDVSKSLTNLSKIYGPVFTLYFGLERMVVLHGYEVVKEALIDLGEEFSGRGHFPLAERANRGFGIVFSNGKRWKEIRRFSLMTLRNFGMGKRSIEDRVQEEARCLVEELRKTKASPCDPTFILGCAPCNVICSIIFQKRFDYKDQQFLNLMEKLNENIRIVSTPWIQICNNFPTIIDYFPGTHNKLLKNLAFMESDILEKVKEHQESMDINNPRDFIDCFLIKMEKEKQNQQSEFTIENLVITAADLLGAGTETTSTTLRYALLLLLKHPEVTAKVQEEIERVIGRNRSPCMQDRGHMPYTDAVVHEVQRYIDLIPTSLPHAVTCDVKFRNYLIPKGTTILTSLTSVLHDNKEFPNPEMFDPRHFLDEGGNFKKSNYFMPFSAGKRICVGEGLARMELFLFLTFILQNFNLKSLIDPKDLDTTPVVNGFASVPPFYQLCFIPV
Cytochrome P450 2C9, sequence (P11712 whole entry): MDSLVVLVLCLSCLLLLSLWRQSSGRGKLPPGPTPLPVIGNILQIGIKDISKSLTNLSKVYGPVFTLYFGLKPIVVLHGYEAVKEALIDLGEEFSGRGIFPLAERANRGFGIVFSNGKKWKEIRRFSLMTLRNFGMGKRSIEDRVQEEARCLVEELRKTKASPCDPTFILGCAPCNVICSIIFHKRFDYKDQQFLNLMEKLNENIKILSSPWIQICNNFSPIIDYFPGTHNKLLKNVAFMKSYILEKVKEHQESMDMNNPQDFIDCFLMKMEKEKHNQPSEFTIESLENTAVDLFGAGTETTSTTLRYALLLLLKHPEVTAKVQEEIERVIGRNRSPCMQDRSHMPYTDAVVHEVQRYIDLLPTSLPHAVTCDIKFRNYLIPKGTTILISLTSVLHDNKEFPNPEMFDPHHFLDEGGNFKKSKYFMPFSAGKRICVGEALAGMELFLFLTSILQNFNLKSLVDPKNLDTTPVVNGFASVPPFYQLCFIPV

`O=C(NNC(=O)c1ccccc1-n1cccc1)c1ccc(Cl)c(Cl)c1`: the half-maximal activity concentration (AC50) (in general, the midpoint of the concentration-response curve, whichever way the signal moves) is 3.98 µM (inconclusive) in [1], 25.1 µM (inconclusive) in [3] and “inconclusive” in data set [4]. In addition, in data set [2], the CC50 (as a rule, the concentration giving 50% cytotoxicity) is > 40 µM (active).

Consider `O=C(Nc1ccc2nc3n(c(=O)c2c1)CCCCC3)c1c(F)ccc([N+](=O)[O-])c1F`, for which the concentration giving a half-maximal response (EC50) (in general, the concentration that produces a half-maximal response) in data set [5] is > 120 µM (not active); in data set [6], 17.7 µM (active); in data set [7], > 120 µM (not active); in data set [8], > 120 µM (not active); in data set [9] it was > 150 µM (inconclusive); in [10], 50.7 µM (inconclusive). Further, the results for the EC50 in data set [11], in [13] and in [14] were 4.04 µM (inconclusive), 0.571 µM (active) and 5.17 µM (active), respectively. Moreover, the AC50 in data set [12] is 14.8 µM (active); in data set [15], 6.28 µM (active); in data set [16], 2.3 µM (active); in data set [17], 12.5 µM (active); in [18] it was 4.65 µM (active); in data set [20] it was 4.39 µM (active). The IC50 (usually the midpoint of a concentration-inhibition curve) in data set [19] is 8.8 µM (active).

For `O=C(/C=C/c1ccccc1)NC(NC(=S)Nc1cc(Cl)ccc1Cl)C(Cl)(Cl)Cl` (centres undefined), the concentration for a half-maximal effect (EC50) in data set [21] was 2.43 µM (active); in data set [22], 4.43 µM (active); in data set [23], 1.73 µM (active); in data set [24] it was 17.3 µM (active); in data set [25], > 60 µM (not active); in data set [26], 16.1 µM (active). Moreover, the EC50 in data set [27] is 64.2 µM (active). Further, the AC50 in data set [28] was 0.993 µM (active). In addition, the CC50 in data set [2] is > 40 µM (active).
